# In the PolyMetriX glass transition set:
# ± gives the standard deviation of the reports.
row,glass transition temperature [°C],Compound
1,80.00,*Oc1ccc(C(C)(C)c2ccc(OC(*)=O)c(C(C)C)c2)cc1C(C)C (repeat unit)
2,42.50,*CCCCCCCCCCCCOc1ccc(N(c2ccccc2)c2ccc(-c3ccc(N(c4ccccc4)c4ccc(O*)cc4)cc3)cc2)cc1 (repeat unit)
3,262.00,*C(=O)Nc1ccc(Oc2ccc(-c3ccc(Oc4ccc(NC(=O)c5ccc6c(c5)C(=O)N(c5ccc(Oc7ccc(N8C(=O)c9ccc(*)cc9C8=O)cc7)cc5)C6=O)cc4)cc3)cc2)cc1 (repeat unit)
4,7.00,*CCCCCOC(=O)c1cccc(C(=O)O*)c1 (repeat unit)
5,251.50,*Oc1ccc(-c2ccc(NC(=O)c3cc(C(=O)Nc4ccc(-c5ccc(Oc6ccc(C(c7ccc(*)cc7)(C(F)(F)F)C(F)(F)F)cc6)c(C(F)(F)F)c5)cc4)cc(C(C)(C)C)c3)cc2)cc1C(F)(F)F (repeat unit)
6,180.00,*CCCCOC(=O)c1ccc(-c2ccc(-c3ccc(C(=O)O*)cc3)cc2)cc1 (repeat unit)
7,157.00,*c1ccc(S(=O)(=O)c2ccc(N3C(=O)C(C)C(SCCOCCSC4C(=O)N(c5ccc(S(=O)(=O)c6ccc(N7C(=O)CC(C)(SCCOCCSC8(C)CC(=O)N(*)C8=O)C7=O)cc6)cc5)C(=O)C4C)C3=O)cc2)cc1 (repeat unit)
8,53.00,*C(=O)OCCOC(=O)c1ccc(C(=O)OCCOC(=O)N2CCN(*)CC2)cc1 (repeat unit)
9,125.00,*Oc1cccc(NC(=O)CCCCCCCCC(=O)Nc2ccc(*)cc2)c1 (repeat unit)
10,21.90,*CCOCCOC(=O)c1ccc(C(=O)O*)cc1 (repeat unit)
11,139.00,*CCC(CC)CC(C)CNC(=O)c1ccc(C(=O)N*)cc1 (repeat unit)
12,157.00,*c1cccc(C(F)(F)C(F)(F)C(F)(F)C(F)(F)C(F)(F)c2cccc(N3C(=O)c4ccc(Oc5ccc6c(c5)C(=O)N(*)C6=O)cc4C3=O)c2)c1 (repeat unit)
13,242.00,*Oc1ccc(C2(c3ccc(Oc4ccc(C(=O)C(=O)c5ccc(*)cc5)cc4)cc3)c3ccccc3-c3ccccc32)cc1 (repeat unit)
14,68.00,*c1ccc(C(=O)OCCCCCCCCCCCCOC(=O)c2ccc(-c3nnc(*)s3)cc2)cc1 (repeat unit)
15,103.00,*Oc1cccc(Oc2ccc(Oc3cccc(OC(=O)c4ccc(C(*)=O)cc4)c3)cc2)c1 (repeat unit)
16,167.50,*CC(O)COc1ccc(S(=O)(=O)c2ccc(O*)cc2)cc1 (repeat unit)
17,234.00,*c1ccc2c(c1)C(=O)N(c1ccc(Oc3ccc(C(c4ccc(Oc5ccc(N6C(=O)c7ccc(C(*)(C(F)(F)F)C(F)(F)F)cc7C6=O)cc5C(F)(F)F)cc4)(C(F)(F)F)C(F)(F)F)cc3)c(C(F)(F)F)c1)C2=O (repeat unit)
18,304.00,*c1ccc(NC2CC(=O)N(c3ccc(-c4sc(-c5ccc(N6C(=O)CC(Nc7ccc(-c8nc(-c9ccc(/C=C/c%10ccc([N+](=O)[O-])cc%10)s9)[nH]c8*)cc7)C6=O)cc5)c(-c5ccccc5)c4-c4ccccc4)cc3)C2=O)cc1 (repeat unit)
19,102.00,*CC(*)c1cc(-c2ccc(C(=O)OC(C)CCCCCC)cc2)ccc1-c1ccc(C(=O)OC(C)CCCCCC)cc1 (repeat unit)
20,283.00,*C(=O)Nc1ccc(Oc2ccc(-c3ccc(Oc4ccc(NC(=O)c5ccc6c(c5)C(=O)N(c5ccc(Oc7ccc(C(C)(C)c8ccc(Oc9ccc(N%10C(=O)c%11ccc(*)cc%11C%10=O)cc9)cc8)cc7)cc5)C6=O)cc4)cc3)cc2)cc1 (repeat unit)
21,297.50,*C(=O)Nc1ccc(NC(=O)c2ccc(N3C(=O)c4ccc(*)cc4C3=O)cc2)cc1 (repeat unit)
22,85.00,*CCCCCCCCCCCCNC(=O)CCc1ccc(CCC(=O)N*)cc1 (repeat unit)
23,-93.00,*O[Si](C)(C)O[Si](C)(C)O[Si](C)(C)O[Si](C)(C)O[Si](C)(C)O[Si](C)(C)OC1=C(*)c2cccc3cccc1c23 (repeat unit)
24,115.00,*/C=C/c1ccc2c(c1)C(CCCCCCOc1ccc3ccc(=O)oc3c1)(CCCCCCOc1ccc3ccc(=O)oc3c1)c1cc(/C=C/c3ccc4c(c3)C(CCCCCC)(CCCCCC)c3cc(*)ccc3-4)ccc1-2 (repeat unit)
25,247.00,*c1ccc(Oc2ccc(S(=O)(=O)c3ccc(Oc4ccc(C5(*)OC(=O)c6ccccc65)cc4)cc3)cc2)cc1 (repeat unit)

row,glass transition temperature [°C],Compound
1,213.00,*CC1CCCC(CN2C(=O)c3ccc(C(=O)c4ccc5c(c4)C(=O)N(*)C5=O)cc3C2=O)C1 (repeat unit)
2,46.50,*OC(=O)OCCOCCOC(=O)OC1COC2C(*)COC12 (repeat unit)
3,89.31,*CCCCC(=O)Oc1ccc(OC(=O)c2ccc3c(c2)C(=O)N(*)C3=O)cc1 (repeat unit)
4,141.50,*CC(*)C(=O)NCCC[N+](C)(C)CCCS(=O)(=O)O (repeat unit)
5,253.50,*c1ccc(Oc2cc3ccccc3cc2Oc2ccc(N3C(=O)c4ccc(-c5ccc6c(c5)C(=O)N(*)C6=O)cc4C3=O)cc2)cc1 (repeat unit)
6,281.00,*Oc1ccc(NC(=O)c2ccc(C(=O)Nc3ccc(Oc4ccc(C5(c6ccc(*)cc6)CC6CCC5C6)cc4)cc3)cc2)cc1 (repeat unit)
7,144.00,*Oc1ccc(Oc2ccc(C(=O)c3cccc(NC(=O)CCCCCCCCC(=O)Nc4cccc(C(=O)c5ccc(*)cc5)c4)c3)cc2)cc1 (repeat unit)
8,45.30,*O[Si](*)(C)CCCOc1ccc(C(=O)Oc2ccc(OC(=O)CCCCC(=O)OC3CC(C)CCC3C(C)C)cc2)cc1 (repeat unit)
9,369.00,*c1ccc2oc(-c3ccc(-c4nc5cc(C(*)(c6ccccc6)C(F)(F)F)ccc5o4)cc3)nc2c1 (repeat unit)
10,248.00,*Oc1c(C)cc(C(C)(C)c2cc(C)c(ON3C(=O)c4ccc(Oc5ccc(C6(c7ccc(Oc8ccc9c(c8)C(=O)N(*)C9=O)cc7)CCC(C(C)(C)C)CC6)cc5)cc4C3=O)c(C)c2)cc1C (repeat unit)
11,46.00,*CC(*)(C)C(=O)OCc1ccc(F)cc1F (repeat unit)
12,217.00,*c1cccc(Cc2cccc(N3C(=O)c4ccc([Si](C)(C)O[Si](C)(C)c5ccc6c(c5)C(=O)N(*)C6=O)cc4C3=O)c2)c1 (repeat unit)
13,125.00,*CC(*)(C)C(=O)OC1CC(C)CC(C)(C)C1 (repeat unit)
14,46.00,*CCCCCCCCCCCCNC(=O)CCCCCCCCCCCCCCC(=O)N* (repeat unit)
15,213.00,*C(=O)c1ccc2c(c1)C(=O)N(c1ccc(Cc3ccc(N4C(=O)c5ccc(*)cc5C4=O)c(C(C)(C)C)c3)cc1C(C)(C)C)C2=O (repeat unit)
16,62.00,*CCCCCCCCOc1c(OC)cc(/C=C2\CCC/C(=C\c3cc(OC)c(O*)c(OC)c3)C2=O)cc1OC (repeat unit)
17,141.00,*OC(COC(=O)c1ccc(-c2ccc(C(*)=O)cc2)cc1)COc1ccc(/N=N/c2ccc(C#N)cc2)cc1 (repeat unit)
18,206.00,*Oc1cc(C(C)(C)C)c(Oc2ccc(C(=O)c3ccc(*)cc3)cc2)cc1C(C)(C)C (repeat unit)
19,213.00,*c1ccc(Oc2ccc(Oc3ccc(NC(=O)c4cccc(Oc5ccc6c(c5)C(=O)N(*)C6=O)c4)cc3)cc2)cc1 (repeat unit)
20,75.00,*CC(O)COc1ccc(C(C)CC(C)(C)c2ccc(O*)cc2)cc1 (repeat unit)
21,234.50,*c1ccc(Oc2ccc(-n3c(=O)c4c(Oc5ccc(OCCCCCCCC)cc5)c5c(=O)n(*)c(=O)c5c(Oc5ccc(OCCCCCCCC)cc5)c4c3=O)cc2)cc1 (repeat unit)
22,281.00,*Oc1ccc(S(=O)(=O)c2ccc(Oc3ccc(S(=O)(=O)c4ccc(-c5ccc(-c6ccc(S(=O)(=O)c7ccc(*)cc7)cc6)cc5)cc4)cc3)cc2)cc1 (repeat unit)
23,230.00,*Oc1ccc(S(=O)(=O)c2ccc(Oc3ccc(C4CCCC(C(C)c5ccc(*)cc5)C4)cc3)cc2)cc1 (repeat unit)
24,37.00,*CC(*)C(=O)OC1CCCCCCCCCCC1 (repeat unit)

row,Compound,glass transition temperature [°C]
1,*OC(C)(CC(*)=O)C(F)(F)F (repeat unit),27.00
2,*CC(*)c1ccc(C(C)(O)CCC)cc1 (repeat unit),135.00
3,*CC(*)c1ccc(Cl)c(F)c1 (repeat unit) [Poly(3-fluoro-4-chloro styrene) ],122 ± 0.6
4,*CC(*)c1ccc2c(c1)OCO2 (repeat unit),138.00
5,*CC(*)C(=O)OCCCOCC (repeat unit),-61.50
6,*CCOC(=O)CCCCC(=O)O* (repeat unit) [Poly(ethylene adipate)],-48.83 ± 8
7,*CC(*)c1ccc(/C(C)=N/O)cc1 (repeat unit),134.00
8,*CCC(C)O[Si](C)(C)O* (repeat unit),-88.00
9,*CC(*)(C)C(=O)OCCN(C)C (repeat unit),28.62
10,*Nc1ccc(C(c2ccc(NC(=O)c3cccc(C(*)=O)c3)cc2)(P2(=O)Oc3ccccc3-c3ccccc32)P2(=O)Oc3ccccc3-c3ccccc32)cc1 (repeat unit),230.00
11,*CC(*)C(=O)NCCC[N+](C)(C)C (repeat unit),57.00
12,*O[Si](C)(C)CC[Si](*)(C)C (repeat unit),-88.00
13,*CC(*)N (repeat unit),57.00
14,*CC(*)(CF)C(=O)OCC (repeat unit),43.00
15,*O[Si](*)(C)OCCOCCOCCOC (repeat unit),-120.10
16,*CCCCCCCC(*)C (repeat unit),-58.00
